Results from patent US20260092071A1, “COMPOUNDS AND COMPOSITIONS AS SMARCA2/4 DEGRADERS AND USES THEREOF” (REGENTS OF THE UNIVERSITY OF MICHIGAN, priority 2022, published 2026).
Like-named read-outs stand apart in the source and are kept apart here.

Columns and labels:
SMARCA2 = SMARCA2 (Homo sapiens, UniProt P51531); experiment: HiBiT assay for protein degradation, Hela SMARCA2-HiBiT cells (A series); type: cell-based; parameters: Hela cells were genetically modified via CRISPR/Cas9 to fuse HiBiT to the carboxy terminus of SMARCA2; host or cells: HeLa (CRISPR/Cas9 HiBiT knock-in); settings: for Dmax: read-out: SMARC A2 Hela HiBit Dmax (%); for DC50: read-out: SMARC A2 Hela HiBit DC50;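 for SMARC A2 Hela HiBit Dmax (%): 24 h compound treatment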
Chain of SMARCA2 (P51531 whole entry, the tested form may be a part): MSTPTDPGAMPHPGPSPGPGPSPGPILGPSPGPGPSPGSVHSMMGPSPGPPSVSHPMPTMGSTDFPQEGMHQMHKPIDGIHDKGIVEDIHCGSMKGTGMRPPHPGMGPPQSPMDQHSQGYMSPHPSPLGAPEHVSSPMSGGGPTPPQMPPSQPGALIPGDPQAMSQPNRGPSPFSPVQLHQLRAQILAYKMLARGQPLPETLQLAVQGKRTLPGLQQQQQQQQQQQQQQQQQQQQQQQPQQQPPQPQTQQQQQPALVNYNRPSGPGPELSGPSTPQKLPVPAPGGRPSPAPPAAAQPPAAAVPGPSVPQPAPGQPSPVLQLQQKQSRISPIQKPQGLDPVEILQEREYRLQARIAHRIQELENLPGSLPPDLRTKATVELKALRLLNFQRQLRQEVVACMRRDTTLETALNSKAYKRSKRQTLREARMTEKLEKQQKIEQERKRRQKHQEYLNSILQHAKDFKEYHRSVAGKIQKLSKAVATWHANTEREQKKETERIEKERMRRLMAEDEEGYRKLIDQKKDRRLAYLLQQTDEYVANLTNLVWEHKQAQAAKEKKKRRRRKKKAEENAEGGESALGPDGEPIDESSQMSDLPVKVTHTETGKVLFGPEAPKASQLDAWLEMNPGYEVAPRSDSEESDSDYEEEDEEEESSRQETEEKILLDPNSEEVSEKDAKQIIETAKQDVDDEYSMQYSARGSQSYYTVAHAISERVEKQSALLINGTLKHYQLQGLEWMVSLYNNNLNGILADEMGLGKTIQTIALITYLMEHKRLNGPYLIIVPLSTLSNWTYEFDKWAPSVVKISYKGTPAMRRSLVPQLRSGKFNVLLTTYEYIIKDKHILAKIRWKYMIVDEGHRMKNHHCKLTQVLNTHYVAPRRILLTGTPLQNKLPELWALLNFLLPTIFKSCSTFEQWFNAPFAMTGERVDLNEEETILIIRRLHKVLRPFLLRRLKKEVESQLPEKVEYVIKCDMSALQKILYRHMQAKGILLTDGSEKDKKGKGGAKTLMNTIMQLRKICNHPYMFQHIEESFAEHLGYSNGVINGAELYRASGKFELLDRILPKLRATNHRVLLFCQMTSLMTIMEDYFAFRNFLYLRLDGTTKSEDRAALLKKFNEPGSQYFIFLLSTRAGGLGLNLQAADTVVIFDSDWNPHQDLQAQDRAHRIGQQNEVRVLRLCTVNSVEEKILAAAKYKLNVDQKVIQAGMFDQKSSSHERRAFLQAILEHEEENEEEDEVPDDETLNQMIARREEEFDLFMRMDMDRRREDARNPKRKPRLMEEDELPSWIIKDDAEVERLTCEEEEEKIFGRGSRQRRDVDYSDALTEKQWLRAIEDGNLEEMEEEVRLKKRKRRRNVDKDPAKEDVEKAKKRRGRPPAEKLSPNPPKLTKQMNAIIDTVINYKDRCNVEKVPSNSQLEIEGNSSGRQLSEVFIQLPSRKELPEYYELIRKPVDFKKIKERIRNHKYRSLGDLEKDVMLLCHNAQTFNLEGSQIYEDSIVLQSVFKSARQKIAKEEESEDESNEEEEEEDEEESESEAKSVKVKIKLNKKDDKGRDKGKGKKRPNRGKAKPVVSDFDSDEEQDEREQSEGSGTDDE
Summary of the method: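 HeLa cells engineered by CRISPR/Cas9 to carry a HiBiT tag fused to the C-terminus of SMARCA2 (Promega CS302365) were grown in DMEM supplemented with FBS and penicillin-streptomycin. After treatment, remaining SMARCA2 protein was quantified with the Nano-Glo® HiBiT Lytic Detection Assay (Promega N3050), and curves were fitted in GraphPad Prism.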

SMARCA4 = SMARCA4 (Homo sapiens, UniProt P51532); experiment: HiBiT assay for protein degradation, Hela SMARCA4-HiBiT cells (A series); type: cell-based; parameters: fuse HiBiT to the carboxy terminus of SMARCA2 (Promega CS302365) or SMARCA4 (Promega CS3023225); host or cells: HeLa (CRISPR/Cas9 HiBiT knock-in); settings: for Dmax: read-out: SMARC A4 Hela HiBit Dmax(%); for DC50: read-out: SMARC A4 Hela HiBit DC50
Chain of SMARCA4 (P51532 whole entry, the tested form may be a part): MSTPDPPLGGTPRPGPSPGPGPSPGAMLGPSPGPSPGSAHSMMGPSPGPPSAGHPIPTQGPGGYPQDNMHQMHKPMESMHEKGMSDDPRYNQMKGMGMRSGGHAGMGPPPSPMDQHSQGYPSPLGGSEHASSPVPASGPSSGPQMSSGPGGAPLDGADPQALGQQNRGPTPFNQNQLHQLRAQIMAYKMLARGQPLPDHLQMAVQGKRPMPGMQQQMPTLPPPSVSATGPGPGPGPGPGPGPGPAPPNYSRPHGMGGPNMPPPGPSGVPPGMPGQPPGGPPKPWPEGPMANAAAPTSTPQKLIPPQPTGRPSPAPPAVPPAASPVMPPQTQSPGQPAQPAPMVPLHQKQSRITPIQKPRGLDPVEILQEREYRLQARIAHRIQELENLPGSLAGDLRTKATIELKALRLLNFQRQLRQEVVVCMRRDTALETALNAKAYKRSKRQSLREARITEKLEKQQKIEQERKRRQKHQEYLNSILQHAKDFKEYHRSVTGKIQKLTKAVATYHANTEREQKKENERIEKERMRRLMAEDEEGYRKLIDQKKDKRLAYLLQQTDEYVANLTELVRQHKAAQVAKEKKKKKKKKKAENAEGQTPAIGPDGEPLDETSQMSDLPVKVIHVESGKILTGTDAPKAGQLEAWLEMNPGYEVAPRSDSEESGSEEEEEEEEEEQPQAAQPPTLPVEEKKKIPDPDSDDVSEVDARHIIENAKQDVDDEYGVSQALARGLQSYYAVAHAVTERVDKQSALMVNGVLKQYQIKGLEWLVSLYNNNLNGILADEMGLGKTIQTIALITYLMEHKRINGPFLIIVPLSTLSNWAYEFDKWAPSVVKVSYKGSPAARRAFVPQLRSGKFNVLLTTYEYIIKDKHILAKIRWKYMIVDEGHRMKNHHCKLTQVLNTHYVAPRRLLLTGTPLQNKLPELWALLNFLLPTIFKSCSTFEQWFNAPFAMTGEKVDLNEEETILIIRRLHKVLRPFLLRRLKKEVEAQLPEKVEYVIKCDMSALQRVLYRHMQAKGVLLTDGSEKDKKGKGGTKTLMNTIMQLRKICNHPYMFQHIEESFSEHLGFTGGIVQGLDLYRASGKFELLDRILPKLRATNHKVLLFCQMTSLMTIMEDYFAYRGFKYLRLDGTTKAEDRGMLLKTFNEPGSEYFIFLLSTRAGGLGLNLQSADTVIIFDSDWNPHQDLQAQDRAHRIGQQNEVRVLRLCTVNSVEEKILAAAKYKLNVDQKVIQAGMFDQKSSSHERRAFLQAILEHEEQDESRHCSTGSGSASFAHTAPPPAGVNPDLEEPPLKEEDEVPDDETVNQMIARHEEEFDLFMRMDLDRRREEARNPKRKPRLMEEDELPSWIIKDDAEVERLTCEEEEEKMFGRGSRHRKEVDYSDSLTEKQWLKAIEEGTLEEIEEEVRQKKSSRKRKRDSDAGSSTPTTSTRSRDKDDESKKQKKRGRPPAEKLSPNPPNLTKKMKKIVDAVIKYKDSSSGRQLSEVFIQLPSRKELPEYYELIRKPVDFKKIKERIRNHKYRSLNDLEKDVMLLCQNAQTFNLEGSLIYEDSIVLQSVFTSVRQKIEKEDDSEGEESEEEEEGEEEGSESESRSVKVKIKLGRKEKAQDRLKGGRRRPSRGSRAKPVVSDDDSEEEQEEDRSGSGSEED
Summary of the method: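 HeLa cells engineered by CRISPR/Cas9 to carry a HiBiT tag fused to the C-terminus of SMARCA4 (Promega CS3023225) were grown in DMEM supplemented with FBS and penicillin-streptomycin. After compound exposure, remaining SMARCA4 protein was quantified using the Nano-Glo® HiBiT Lytic Detection Assay (Promega N3050), and curves were fitted in GraphPad Prism.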

[1] = Hela SMARCA4-HiBiT cells, 24 hours treatment
[2] = Hela SMARCA2-HiBiT cells, 24 hours treatment

| Dmax (SMARCA4; [1]) [%] | SMARC A2 Hela HiBit Dmax (%) (SMARCA2; [2]) | SMARC A4 Hela HiBit Dmax(%) (SMARCA4; [1]) | DC50 (SMARCA2; [2]) [nM] | Dmax (SMARCA2; [2]) [%] | DC50 (SMARCA4; [1]) [nM] | SMILES | Dmax (SMARCA2; HeLa) [%] | DC50 (SMARCA2) [nM] | DC50 (SMARCA4) [nM] |
| --- | --- | --- | --- | --- | --- | --- | --- | --- | --- |
| – | B (B (70-90% degradation)) | C (C (50-69% degradation)) | – | – | – | Cc1ncsc1-c1ccc([C@H](CN2CCOCC2)NC(=O)[C@@H]2C[C@@H](O)CN2C(=O)[C@@H](NC(=O)C23CCC(CN4CCC(c5ccc6c(c5)C5(CCCCC5)c5nc(=O)c7c(Br)cccc7n5-6)CC4)(CC2)CC3)C(C)(C)C)cc1 [Compound A28, (2S,4R)-1-((S)-2-(4-((4-(4′-bromo-5′-oxo-5′H-spiro[cyclohexane-1,7′-indolo[1,2-a]quinazolin]-9′-yl)piperidin-1-yl)methyl)bicyclo[2.2.2]octane-1-carboxamido)-3,3-dimethylbutanoyl)-4-hydroxy-N—((R)-1-(4-(4-methylthiazol-5-yl)phenyl)-2-morpholinoethyl)pyrrolidine-2-carboxamide] | – | < 100 | 100 to 500 |
| – | B (B (70-90% degradation)) | D (D (<50% degradation)) | – | – | – | Cc1ncsc1-c1ccc([C@H](CN2CCOCC2)NC(=O)[C@@H]2C[C@@H](O)CN2C(=O)[C@@H](NC(=O)C23CCC(CN4CCC(c5ccc6c(c5)-n5c(nc(=O)c7c(Br)cccc75)C65CCCCC5)CC4)(CC2)CC3)C(C)(C)C)cc1 [Compound A30, (2S,4R)-1-((S)-2-(4-((4-(4′-bromo-5′-oxo-5′H-spiro[cyclohexane-1,7′-indolo[1,2-a]quinazolin]-10′-yl)piperidin-1-yl)methyl)bicyclo[2.2.2]octane-1-carboxamido)-3,3-dimethylbutanoyl)-4-hydroxy-N—((R)-1-(4-(4-methylthiazol-5-yl)phenyl)-2-morpholinoethyl)pyrrolidine-2-carboxamide] | – | < 100 | > 1000 |
| 50 to 69 | – | – | > 1000 | < 50 | > 1000 | Cc1ncsc1-c1ccc([C@H](C)NC(=O)[C@@H]2C[C@@H](O)CN2C(=O)[C@@H](n2cc([C@H]3CC[C@H](CN4CCC(c5ncc6c(n5)-n5c(nc(=O)c7c(Br)cccc75)C65CCCCC5)CC4)CC3)nn2)C(C)(C)C)cc1 [Compound A31, (2S,4R)-1-((S)-2-(4-((1r,4S)-4-((4-(4′-bromo-5′-oxo-5′H-spiro[cyclohexane-1,7′-pyrimido[5′,4′: 4,5]pyrrolo[1,2-a]quinazolin]-10′-yl)piperidin-1-yl)methyl)cyclohexyl)-1H-1,2,3-triazol-1-yl)-3,3-dimethylbutanoyl)-4-hydroxy-N—((S)-1-(4-(4-methylthiazol-5-yl)phenyl)ethyl)pyrrolidine-2-carboxamide] | – | – | – |
| 70 to 90 | – | – | > 1000 | < 50 | > 1000 | Cc1ncsc1-c1ccc([C@H](CN2CCOCC2)NC(=O)[C@@H]2C[C@@H](O)CN2C(=O)[C@@H](n2cc([C@H]3CC[C@H](CN4CCC(c5ncc6c(n5)-n5c(nc(=O)c7c(Br)cccc75)C65CCCCC5)CC4)CC3)nn2)C(C)(C)C)cc1 [Compound A32, (2S,4R)-1-((S)-2-(4-((1r,4S)-4-((4-(4′-bromo-5′-oxo-5′H-spiro[cyclohexane-1,7′-pyrimido[5′,4′: 4,5]pyrrolo[1,2-a]quinazolin]-10′-yl)piperidin-1-yl)methyl)cyclohexyl)-1H-1,2,3-triazol-1-yl)-3,3-dimethylbutanoyl)-4-hydroxy-N—((R)-1-(4-(4-methylthiazol-5-yl)phenyl)-2-morpholinoethyl)pyrrolidine-2-carboxamide] | – | – | – |
| 70 to 90 | – | – | < 100 | > 90 | 100 to 500 | Cc1ncsc1-c1ccc([C@H](Cn2cc([C@H]3CC[C@H](CN4CCC(c5ccc6c(c5)C5(CCCCC5)c5nc(=O)c7c(Br)cccc7n5-6)CC4)CC3)nn2)NC(=O)[C@@H]2C[C@@H](O)CN2C(=O)[C@@H](NC(=O)C2(F)CC2)C(C)(C)C)cc1 [Compound A33, (2S,4R)—N—((R)-2-(4-((1r,4R)-4-((4-(4′-bromo-5′-010-5′H-spiro[cyclohexane-1,7′-indolo[1,2-a]quinazolin]-9′-yl)piperidin-1-yl)methyl)cyclohexyl)-1H-1,2,3-triazol-1-yl)-1-(4-(4-methylthiazol-5-yl)phenyl)ethyl)-1-((S)-2-(1-fluorocyclopropane-1-carboxamido)-3,3-dimethylbutanoyl)-4-hydroxypyrrolidine-2-carboxamide] | – | – | – |
| < 50 | – | – | 501 to 1000 | 50 to 69 | > 1000 | Cc1ncsc1-c1ccc([C@H](Cn2cc([C@H]3CC[C@H](CN4CCC(c5ccc6c(n5)-n5c(nc(=O)c7c(Br)cccc75)C65CCCCC5)CC4)CC3)nn2)NC(=O)[C@@H]2C[C@@H](O)CN2C(=O)[C@@H](NC(=O)C2(F)CC2)C(C)(C)C)cc1 [Compound A34, (2S,4R)—N—((R)-2-(4-((1r,4R)-4-((4-(4′-bromo-5′-oxo-5′H-spiro[cyclohexane-1,7′-pyrido[3′,2′: 4,5]pyrrolo[1,2-a]quinazolin]-10′-yl)piperidin-1-yl)methyl)cyclohexyl)-1H-1,2,3-triazol-1-yl)-1-(4-(4-methylthiazol-5-yl)phenyl)ethyl)-1-((S)-2-(1-fluorocyclopropane-1-carboxamido)-3,3-dimethylbutanoyl)-4-hydroxypyrrolidine-2-carboxamide] | – | – | – |
| > 90 | – | – | < 100 | > 90 | < 100 | Cc1ncsc1-c1ccc([C@H](CCCCCN2CCC(c3ccc4c(c3)C3(CCCCC3)c3nc(=O)c5c(Br)cccc5n3-4)CC2)NC(=O)[C@H]2C[C@H](O)CN2C(=O)[C@@H](n2cc(C3CC3)nn2)C(C)(C)C)cc1 [Compound A35, (2R,4S)—N—((S)-6-(4-(4′-bromo-5′-oxo-5′H-spiro[cyclohexane-1,7′-indolo[1,2-a]quinazolin]-9′-yl)piperidin-1-yl)-1-(4-(4-methylthiazol-5-yl)phenyl)hexyl)-1-((S)-2-(4-cyclopropyl-1H-1,2,3-triazol-1-yl)-3,3-dimethylbutanoyl)-4-hydroxypyrrolidine-2-carboxamide] | – | – | – |
| > 90 | – | – | < 100 | > 90 | < 100 | Cc1ncsc1-c1ccc([C@H](CCCCCN2CCC(c3ccc4c(c3)-n3c(nc(=O)c5c(Br)cccc53)C43CCCCC3)CC2)NC(=O)[C@H]2C[C@H](O)CN2C(=O)[C@@H](n2cc(C3CC3)nn2)C(C)(C)C)cc1 [Compound A36, (2R,4S)—N—((S)-6-(4-(4′-bromo-5′-oxo-5′H-spiro[cyclohexane-1,7′-indolo[1,2-a]quinazolin]-10′-yl)piperidin-1-yl)-1-(4-(4-methylthiazol-5-yl)phenyl)hexyl)-1-((S)-2-(4-cyclopropyl-1H-1,2,3-triazol-1-yl)-3,3-dimethylbutanoyl)-4-hydroxypyrrolidine-2-carboxamide] | – | – | – |
| > 90 | – | – | < 100 | > 90 | < 100 | Cc1ncsc1-c1ccc([C@H](CCCCCN2CCC(c3ccc4c(n3)-n3c(nc(=O)c5c(Br)cccc53)C43CCCCC3)CC2)NC(=O)[C@H]2C[C@H](O)CN2C(=O)[C@@H](n2cc(C3CC3)nn2)C(C)(C)C)cc1 [Compound A37, (2R,4S)—N—((S)-6-(4-(4′-bromo-5′-oxo-5′H-spiro[cyclohexane-1,7′-pyrido[3′,2′: 4,5]pyrrolo[1,2-a]quinazolin]-10′-yl)piperidin-1-yl)-1-(4-(4-methylthiazol-5-yl)phenyl)hexyl)-1-((S)-2-(4-cyclopropyl-1H-1,2,3-triazol-1-yl)-3,3-dimethylbutanoyl)-4-hydroxypyrrolidine-2-carboxamide] | – | – | – |

| SMILES | Dmax (SMARCA4; [1]) [%] | SMARC A2 Hela HiBit Dmax (%) (SMARCA2; [2]) | SMARC A4 Hela HiBit Dmax(%) (SMARCA4; [1]) | DC50 (SMARCA2; [2]) [nM] | Dmax (SMARCA2; [2]) [%] | DC50 (SMARCA4; [1]) [nM] | Dmax (SMARCA2; HeLa) [%] | DC50 (SMARCA2) [nM] | DC50 (SMARCA4) [nM] |
| --- | --- | --- | --- | --- | --- | --- | --- | --- | --- |
| Cc1ncsc1-c1ccc([C@H](C)NC(=O)[C@@H]2C[C@@H](O)CN2C(=O)[C@@H](NC(=O)C23CCC(CN4CCC(c5ccc6c(c5)C5(CCCCC5)c5nc(=O)c7c(Br)cccc7n5-6)CC4)(CC2)CC3)C(C)(C)C)cc1 [Compound A27, (2S,4R)-1-((S)-2-(4-((4-(4′-bromo-5′-oxo-5′H-spiro[cyclohexane-1,7′-indolo[1,2-a]quinazolin]-9′-yl)piperidin-1-yl)methyl)bicyclo[2.2.2]octane-1-carboxamido)-3,3-dimethylbutanoyl)-4-hydroxy-N—((S)-1-(4-(4-methylthiazol-5-yl)phenyl)ethyl)pyrrolidine-2-carboxamide] | 50 to 69 | – | – | – | – | – | 70 to 90 | < 100 | 501 to 1000 |
| Cc1ncsc1-c1ccc([C@H](C)NC(=O)[C@@H]2C[C@@H](O)CN2C(=O)[C@@H](NC(=O)C23CCC(CN4CCC(c5ccc6c(c5)-n5c(nc(=O)c7c(Br)cccc75)C65CCCCC5)CC4)(CC2)CC3)C(C)(C)C)cc1 [Compound A29] | < 50 | – | – | – | – | – | 70 to 90 | < 100 | > 1000 |
